Laboratory results as given in US5246957A, “N-imidazolyl derivatives of substituted indole” (Farmitalia Carlo Erba S.r.l., priority 1991, dated 1993).
Where two headings read alike, the source gives them in different places.

Legend:
[1] = molecular target: T1, TxA2 receptor (Homo sapiens, UniProt P21731); experiment: Displacement of [^3 H]-SQ 29,548 Binding to Washed Human Platelets; conditions: for affinity for the receptor compared with reference standards: versus BM 13505 and BM 13177; for IC50: washed human platelets, [^3 H]-SQ 29,548 5 nM, 30 min at 25° C., pH 7.4, n = 3, read-out: ^3 H SQ 29548 binding displacement (washed human platelet) IC50
T1 construct: endogenous in cells; host or cells: washed platelets from blood of healthy human volunteers
T1 sequence (P21731 1-343): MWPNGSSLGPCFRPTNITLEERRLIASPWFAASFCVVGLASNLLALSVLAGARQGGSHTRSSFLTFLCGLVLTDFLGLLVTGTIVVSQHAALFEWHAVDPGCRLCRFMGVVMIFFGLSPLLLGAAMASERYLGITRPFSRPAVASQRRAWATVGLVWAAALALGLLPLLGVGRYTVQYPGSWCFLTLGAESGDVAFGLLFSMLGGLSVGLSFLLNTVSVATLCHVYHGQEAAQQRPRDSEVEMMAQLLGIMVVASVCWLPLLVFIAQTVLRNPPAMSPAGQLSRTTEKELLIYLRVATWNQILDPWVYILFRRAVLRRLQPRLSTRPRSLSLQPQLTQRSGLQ
Procedure: (§1) The effects of a representative group of compounds of the invention were evaluated, in comparison with known compounds, on TxB2 synthesis inhibition in vitro, in whole blood of normal rats, and on TxA2 antagonism in a binding assay in washed human platelets.
Displacement of [^3 H]-SQ 29,548 Binding to Washed Human Platelets
Blood from healthy volunteers of both sexes who had not taken any medication for at least 10 days was collected into one-tenth volume of acid citrate dextrose containing indomethacin (28 μM). Platelet rich plasma (PRP), obtained by centrifugation of the blood at 200× g for 20 min, was washed twice (1000× g for 10 min). The platelets were then resuspended in Tyrode-Hepes buffer (pH 7.4) to a final concentration of […] and incubated for 0-60 min at 25° with [^3 H]-SQ 29,548 (5 nM). For displacement experiments various concentrations (10^-9 -10^-4 M) of competing ligands were added and incubated for 30 min at 25° C. […] After the incubation, 4 ml of ice-cold TRIS-HCl buffer ( 10 mM, pH 7.4) was added to each tube and the reaction mixture was immediately filtered by suction through a Whatman GF/C glass filter disc which was washed 2 times with ice-cold TRIS-HCl (4 ml) and counted for radioactivity by a Packard β-counter.
The binding data were analysed by computerized non-linear curve fitting using the Ligand program and expressed as IC50.

[2] = system: TxB2 synthesis; experiment: TxB2 Synthesis Inhibition in vitro, in whole blood of normal rats; type: cell-based, Sprague Dawley rats; conditions: Rattus norvegicus, read-out: In vitro effect on TxB2 synthesis in normal rats, IC50 (whole blood)
Procedure: as §1
TxB2 Synthesis Inhibition
Blood was withdrawn from the abdominal aorta of normal Sprague Dawley rats (Charles River Italy) under light ether anaestesia. The blood was immediately divided in portions of 0.5 ml and distributed in glass tubes each containing a concentration of the test compound, or of the reference compounds.
Samples were then allowed to clot for 1 hour at 37° C., centrifuged at 3000 rpm for 10 min, and serum collected and stored at -20° C. until assayed.

[3] = whole blood of normal rats, clotted 1 hour at 37° C., TxB2 by RIA

Row | IC50 [1] | SMILES | affinity for the receptor compared with reference standards [1] | IC50 [2, 3] | IC50 ([2]; 1 h)
1 | 32.9 nM | Cc1c(CCC(=O)O)n(Cc2ccc(-n3ccnc3)cc2)c2ccc(F)cc12 [FCE 27005, 5-Fluoro-1-[[4-(1H-imidazol-1-yl)phenyl]methyl]-3-methyl-1H-indole-2-propanoic acid] | affinity for the receptor greater than those of compounds BM 13505 and BM 13177 | – | –
2 | – | O=C(O)c1ccc(OCCn2ccnc2)cc1 [Dazoxiben, dazoxiben] | – | 1200 nM | –
3 | – | CC(=O)Oc1ccccc1C(=O)O [ASA, acetylsalicilic acid] | – | – | 31000 nM
4 | 11.9 nM | Cc1c(CCCC(=O)O)n(Cc2ccc(-n3ccnc3)cc2)c2ccc(F)cc12 [FCE 27093, 5-Fluoro-1-[[4-(1H-imidazol-1-yl)phenyl]methyl]-3-methyl-1H-indole-2-butanoic acid] | affinity for the receptor greater than those of compounds BM 13505 and BM 13177 | 1190 nM | –
